According to patent US20180154142A1, “METHODS AND DEVICES FOR TREATMENT OF TUMORS WITH NANO-PULSE STIMULATION” (Old Dominion University Research Foundation, priority 2016, published 2018):

Key:
4T1 cells [1] = assay: cell surface calreticulin (CRT) on treated 4T1 cells, flow cytometry; type: cell-based, mouse; conditions: mitoxantrone 1 μM positive control; change from 4 hours to 24 hours following treatment; FIG. 18A
Experimental: (§1) Cells then were placed in a 6 well plate for 1 hour or 20 hours. Cells with media but no NPS treatment served as negative control and a known ICD inducer, mitoxantrone (1 μM) was added to cells as a positive control. Cell surface-exposed CRT was measured by flow cytometry (FACSAria). Extracellular ATP concentrations were quantified by the luciferase/luciferin-based ATP determination Kit (A22066, Thermo-Fisher). The amount of HMGB1 in the supernatant was determined by HMGB1 ELISA Kit (MBS722248, MyBioSource).

4T1 cells [2] = assay: extracellular ATP release from treated 4T1 cells, luciferase/luciferin-based ATP determination kit; type: cell-based, mouse; conditions: mitoxantrone 1 μM positive control; change from 4 hours to 24 hours following treatment; FIG. 18B
Experimental: as §1

How did the “levels of calreticulin, mean fluorescence intensity (MFI)” value (4T1 cells [1]) turn out when `O=C1c2c(O)ccc(O)c2C(=O)c2c(NCCNCCO)ccc(NCCNCCO)c21` [MXT, mitoxantrone] was run?
The value was “largest increase”.

And the “levels of ATP release in the supernatants” value (4T1 cells [2])?
Its value is “increases”.
